According to US20230020319A1, “COMPOSITIONS AND METHODS FOR OPTOCHEMICAL CONTROL OF MTOR SIGNALING AND MTOR-DEPENDENT AUTOPHAGY” (The University of Hong Kong, priority 2021, published 2023):
“Also recorded” adds a separate entry of the source.

Legend:
autophagy activity = test: Western blot of autophagy level (LC3-II/LC3-I ratio); format: cell-based
From the text: FIGS. 6A-6B show results of Western blotting and quantification of autophagy. FIG. 6A is a photomicrograph showing bands corresponding to each of LC3-I, LC3-II, and GADPH in cells treated with each of DMSO (control), OSI-027, DEACM, and cOSI-027, respectively, each with (+) or without (−) exposure to light. FIG. 6B is a graph showing normalized LC3-II/LC3-I ratio (0-15) for each of the bands in FIG. 6A including DMSO, OSI-027, DEACM, and cOSI-027, each with or without exposure to light, respectively. Light irradiation was done with a 420 nm LED (70 mW/cm^2, 3 min).
mTORC1 inhibition leads to higher autophagy activity, resulting in enhanced protein degradation ability in the lysosome. Therefore, whether the photochemical-controlled mTOR inhibition strategy can be used for manipulating autophagy activity was investigated. Autophagy level was characterized by the LC3-II/LC3-I ratio through western blot analysis (FIGS. 6A-6B). 24 h after the drug treatment, OSI-027 increased the LC3-II/LC-I ratio compared with the control group, indicating a higher autophagy activity. And cOSI-027 treatment led to a higher LC3-II/LC3-I ratio after light irradiation, compared with non-irradiation group.

[1] = Photocleavage of cOSI-027 by HPLC, 420 nm light; format: physicochemical; details: 70 mW/cm^2
Procedure: FIGS. 4A and 4B show the photocleavage of cOSI-027 by HPLC and quantitative analysis. FIG. 4A is a line graph showing the photocleavage of cOSI-027 by HPLC analysis, with 0-1000 mA.U. at the wavelength (342 nm) for cOSI-027 and for OSI-027 when exposed to 420 nm light at 70 mW/cm^2 for 0, 1, 3, 5, 7, 10, or 15 min, respectively. FIG. 4B is a graph showing remaining cOSI-027 (0-400 μM) and released OSI-027 (0-300 μM) over light irradiation time (0, 1, 3, 5, 7, 10, or 15 min, respectively).
The optochemcial characteristics of the caged OSI-027 prodrug were analyzed by spectroscopy (FIGS. 3A-3C). The absorption peaks of the prodrug were located at 300 nm and 380 nm. The emission peak was located at 460 nm under 380 nm excitation. […] To further verify the photocleavage reaction after light irradiation, high performance liquid chromatography (HPLC) was utilized to monitor the cleavage and release of OSI-027 after light irradiation.

mTORC2 signaling pathway = test: Western blot of mTORC2 signaling (Akt phosphorylation); format: cell-based; details: compared with the control group, with or without light (420 nm, 70 mW/cm^2, 3 min)
Procedure: (§1) FIG. 5 is a photomicrograph showing bands corresponding to each of p-S6K, S6K, p-Akt, Akt, mTOR, and GAPDH, respectively, from cells treated with each of DMSO (control), OSI-027, DEACM, and cOSI-027, respectively, each with (+) or without (−) exposure to light (420 nm, 70 mW/cm^2, 3 min).
(§2) To further investigate the mTOR inhibitory effect of OSI-027 and cOSI-027 with or without light irradiation, western blot was performed to analyze the protein expression level of mTOR pathway (FIG. 5). S6K and Akt phosphorylation ratios were chosen as markers for mTORC1 and mTORC2 signaling pathway investigation, respectively.

cancer cells = test: MTT cell viability assay; format: cell-based
Procedure: FIG. 8 is a bar graph showing cell viability (0%-150%) for cell groups treated with each of DMSO (control), OSI-027, DEACM, and cOSI-027, each at 50 μM, respectively, each with (+) or without (−) exposure to light. Light irradiation was done with a 420 nm LED (70 mW/cm^2, 3 min).
To investigate the anti-cancer effect of this photo-activatable prodrug system, MTT assay was further conducted to analyze the cell viability after the treatment with different formulations.

[2] = tested on: mCherry-GFP-LC3 transfected HeLa cell line; test: CLSM of LC3 puncta in mCherry-GFP-LC3 cells; format: cell-based
From the text: FIGS. 7A-7B are photomicrographs showing the presence of mCherry and/or GFP following exposure to different formulations and respective quantitative analysis. FIG. 7A is a panel of photomicrographs showing the presence of mCherry and/or GFP in cells treated with each of DMSO, OSI-027, DEACM, and cOSI-027, each with light irradiation or no light, respectively. FIG. 7B is a graph showing number of LC3 puncta per cell (0-300) for each of the groups in FIG. 7A. Light irradiation was done with a 420 nm LED (70 mW/cm^2, 3 min).
To further validate the photoactivated effect on autophagy, a mCherry-GFP-LC3 transfected HeLa cell line was established to accurately monitor the LC3 expression and subcellular localization.

mTORC1 signaling pathway = test: Western blot of mTORC1 signaling (S6K phosphorylation); format: cell-based; details: compared with the control group, with or without light (420 nm, 70 mW/cm^2, 3 min)
Procedure: as §1, §2

[3] = cited from earlier work

Row | photocleavage (HPLC) ([1]; after 3 min irradiation, 420 nm) | Structure (SMILES) | LC3-II/LC3-I ratio (autophagy activity; after light irradiation (420 nm LED, 70 mW/cm^2, 3 min), compared with non-irradiation group) | release of OSI-027 (HPLC) ([1]; after 1 min of 420 nm light irradiation) | phosphorylation of Akt (marker for mTORC2 signaling) (mTORC2 signaling pathway) | cell viability (cancer cells; 50 μM, after light irradiation (420 nm LED, 70 mW/cm^2, 3 min)) | puncta number ([2]; after light irradiation (420 nm LED, 70 mW/cm^2, 3 min)) | phosphorylation of S6K (marker for mTORC1 signaling) (mTORC1 signaling pathway) | LC3-II/LC3-I ratio (autophagy activity; 24 h after the drug treatment, compared with the control group) | viability at 50 µM (cancer cells; after 48 h incubation) [%] | number and area of red and yellow puncta in the cells ([2]; compared with the control group) | patients with stable disease ([3]; 8-12-week follow-up assessment) [% patients] | patients free of progression for more than 24 weeks ([3]; of the patients with stable disease) | toxicity and adverse effects ([3]; phase I clinical trial observations)
1 | almost completed | CCN(CC)c1ccc2c(COC(=O)C3CCC(c4nc(-c5cc6cccc(OC)c6[nH]5)c5c(N)ncnn45)CC3)cc(=O)oc2c1 (stereo not drawn) [cOSI-027] | higher | generation of OSI-027 was characterized by the new peak | only exhibited significant inhibitory effect on mTORC1 and mTORC2 pathway after light irradiation | significantly lower | increased | only exhibited significant inhibitory effect on mTORC1 and mTORC2 pathway after light irradiation | – | – | – | – | – | –
2 | – | COc1cccc2cc(-c3nc([C@H]4CC[C@H](C(=O)O)CC4)n4ncnc(N)c34)[nH]c12 [OSI-027, Trans-4-[4-amino-5-(7-methoxy-1H-indol-2-yl)imidazo[5,1-f][1,2,4]triazin-7-yl]-cyclohexanecarboxylic acid] | – | – | decreased | – | – | decreased | increased | ~30 | significantly increase | 29.7 | six | induced dose-limiting toxicities (DLT) and adverse effects; also recorded: induced fatigue, gastrointestinal disorders, decreased cardiac function and cardiomyopathy, bone pain, and hyperglycemia; also recorded: frequently led to renal dysfunction
